Measurements from PMC4663080 (Journal of enzyme inhibition and medicinal chemistry, 2010).

How the values were obtained:
[1] = target: T1, Electrophorus electricus AChE (Electrophorus electricus, UniProt O42275); type: biochemical
AChE [2] = settings: rat synaptosomal membrane as enzyme source; cited from earlier work
AChE [3] = target: AChE (Electrophorus electricus, UniProt O42275); experiment: TLC anticholinesterase bioautographic assay; type: biochemical; settings: compared with galanthamine (1)
[4] = target: T1, Electrophorus electricus AChE; experiment: Steady-state enzyme kinetics of AChE in the presence of nantenine; type: biochemical

T1 sequence (O42275 24-633): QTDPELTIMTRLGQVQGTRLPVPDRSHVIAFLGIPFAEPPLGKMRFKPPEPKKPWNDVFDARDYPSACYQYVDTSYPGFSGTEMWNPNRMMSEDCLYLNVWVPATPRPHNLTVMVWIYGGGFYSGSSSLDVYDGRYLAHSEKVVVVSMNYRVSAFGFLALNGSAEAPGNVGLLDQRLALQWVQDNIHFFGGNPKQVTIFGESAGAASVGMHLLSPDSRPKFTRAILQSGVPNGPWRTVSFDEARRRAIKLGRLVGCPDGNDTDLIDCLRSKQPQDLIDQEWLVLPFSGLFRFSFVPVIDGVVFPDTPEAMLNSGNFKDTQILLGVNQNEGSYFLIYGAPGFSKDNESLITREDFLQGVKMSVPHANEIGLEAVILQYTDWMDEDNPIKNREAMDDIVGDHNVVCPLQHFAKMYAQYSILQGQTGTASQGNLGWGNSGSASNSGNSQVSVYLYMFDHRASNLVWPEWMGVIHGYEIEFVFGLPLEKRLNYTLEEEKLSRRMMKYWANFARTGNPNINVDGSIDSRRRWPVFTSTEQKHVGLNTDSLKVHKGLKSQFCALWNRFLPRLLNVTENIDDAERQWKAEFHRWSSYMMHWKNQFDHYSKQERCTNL
Sequence of AChE (Electrophorus electricus, UniProt O42275) (O42275 24-633): as above

SMILES | fold less active than nantenine (AChE inhibition) [1] | activity in AChE assay (AChE [2]) | activity in TLC anticholinesterase bioautographic assay (AChE [3]) | Ki [4] | mode of inhibition ([4]; Lineweaver-Burk plot)
COc1cc2c(c(-c3ccc4c(c3)OCO4)c1OC)CN(C)CC2 [Compound 15a, 8-(benzo[d][1,3]dioxol-5-yl)-6,7-dimethoxy-2-methyl-1,2,3,4-tetrahydroisoquinoline] | approximately two-fold | – | – | – | –
COc1cc2c(c(-c3ccc4c(c3)OCO4)c1OC)C(C)N(C)CC2 (stereo not drawn) [Compound 15b, 8-(benzo[d][1,3]dioxol-5-yl)-6,7-dimethoxy-1,2-dimethyl-1,2,3,4-tetrahydroisoquinoline] | approximately two-fold | – | – | – | –
COc1cc2c3c(c1OC)-c1cc4c(cc1CC3N(C)CC2)OCO4 (stereo not drawn) [Nantenine (8), nantenine] | – | inactive | showed activity | 18.7 µM | mixed inhibition
